Activity calls are given as the source filed them. Rule as the data show it, for most assays here: actives have a measured EC50 and inactives only a lower limit.
Assays:
[1] = biological target: T1, Replicative DNA helicase DnaB (Mycobacterium tuberculosis, UniProt P9WMR3); test: DnaB intein splicing inhibitors, dose response, biochemical, cell-free fluorescence (AID 449749); format: functional
T1 sequence (P9WMR3 whole entry): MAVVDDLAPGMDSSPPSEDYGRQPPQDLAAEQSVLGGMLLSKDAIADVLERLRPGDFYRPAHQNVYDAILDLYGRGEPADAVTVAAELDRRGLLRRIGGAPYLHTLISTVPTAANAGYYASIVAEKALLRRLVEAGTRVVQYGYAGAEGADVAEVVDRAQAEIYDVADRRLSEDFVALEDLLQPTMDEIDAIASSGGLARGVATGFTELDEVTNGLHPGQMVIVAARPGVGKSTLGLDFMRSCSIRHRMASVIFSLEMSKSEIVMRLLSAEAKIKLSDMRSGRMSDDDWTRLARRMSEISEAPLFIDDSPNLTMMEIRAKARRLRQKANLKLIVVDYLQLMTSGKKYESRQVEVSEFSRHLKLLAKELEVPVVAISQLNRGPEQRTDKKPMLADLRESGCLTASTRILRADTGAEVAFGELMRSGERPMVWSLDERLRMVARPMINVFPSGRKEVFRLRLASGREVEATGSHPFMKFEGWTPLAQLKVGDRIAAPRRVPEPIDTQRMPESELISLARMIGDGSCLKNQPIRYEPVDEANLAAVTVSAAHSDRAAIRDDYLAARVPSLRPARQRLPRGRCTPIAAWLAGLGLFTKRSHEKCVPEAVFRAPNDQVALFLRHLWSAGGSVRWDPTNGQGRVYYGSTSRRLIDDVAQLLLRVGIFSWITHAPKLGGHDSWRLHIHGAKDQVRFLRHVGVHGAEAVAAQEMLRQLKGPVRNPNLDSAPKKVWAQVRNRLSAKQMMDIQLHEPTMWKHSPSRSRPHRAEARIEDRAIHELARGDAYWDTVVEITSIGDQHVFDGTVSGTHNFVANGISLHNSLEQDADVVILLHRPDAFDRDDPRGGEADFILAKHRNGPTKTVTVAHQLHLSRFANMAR

Protein RecA = biological target: T2, Protein RecA (Mycobacterium tuberculosis, UniProt P9WHJ3); test: Fluorescence Cell-Free Homogeneous Dose Retest to Identify Inhibitors of RecA-Intein Splicing Activity. [Related pubchem assays (depositor defined):AID2097, AID2223, AID489010, AID492950]; format: functional
T2 sequence (P9WHJ3 whole entry): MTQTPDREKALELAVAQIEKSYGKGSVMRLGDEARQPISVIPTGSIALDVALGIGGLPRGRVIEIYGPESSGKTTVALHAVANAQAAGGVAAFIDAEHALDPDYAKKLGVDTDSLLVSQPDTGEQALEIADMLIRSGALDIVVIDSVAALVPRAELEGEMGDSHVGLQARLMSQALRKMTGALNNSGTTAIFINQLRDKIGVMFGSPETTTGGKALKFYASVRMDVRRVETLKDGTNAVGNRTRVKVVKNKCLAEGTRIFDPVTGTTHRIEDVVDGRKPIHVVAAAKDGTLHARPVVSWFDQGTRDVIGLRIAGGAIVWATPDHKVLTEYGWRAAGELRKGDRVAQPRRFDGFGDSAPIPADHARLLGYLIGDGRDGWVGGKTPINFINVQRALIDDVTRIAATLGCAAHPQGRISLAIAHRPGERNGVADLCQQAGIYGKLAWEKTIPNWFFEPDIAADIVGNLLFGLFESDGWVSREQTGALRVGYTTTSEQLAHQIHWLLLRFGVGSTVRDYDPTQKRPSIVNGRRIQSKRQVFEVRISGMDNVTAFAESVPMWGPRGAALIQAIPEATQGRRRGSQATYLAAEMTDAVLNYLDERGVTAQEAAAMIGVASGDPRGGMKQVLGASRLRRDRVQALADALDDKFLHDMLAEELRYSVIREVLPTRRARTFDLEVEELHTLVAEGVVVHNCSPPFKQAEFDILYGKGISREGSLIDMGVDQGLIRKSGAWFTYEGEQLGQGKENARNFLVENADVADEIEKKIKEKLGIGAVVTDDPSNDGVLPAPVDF

[2] = viability of uninfected HEp-2 cells – cell-based, HTS, cytotoxicity control for RSV inhibitor project, dose response (AID 2410); format: functional; conditions: human respiratory syncytial virus
[3] = biological target: T3, Zinc finger protein mex-5 (Caenorhabditis elegans, UniProt Q9XUB2); test: potency of MEX-5 RNA-binding blockers – biochemical, C. elegans, fluorescence polarization, dose response (AID 1960)
T3 sequence (Q9XUB2 whole entry): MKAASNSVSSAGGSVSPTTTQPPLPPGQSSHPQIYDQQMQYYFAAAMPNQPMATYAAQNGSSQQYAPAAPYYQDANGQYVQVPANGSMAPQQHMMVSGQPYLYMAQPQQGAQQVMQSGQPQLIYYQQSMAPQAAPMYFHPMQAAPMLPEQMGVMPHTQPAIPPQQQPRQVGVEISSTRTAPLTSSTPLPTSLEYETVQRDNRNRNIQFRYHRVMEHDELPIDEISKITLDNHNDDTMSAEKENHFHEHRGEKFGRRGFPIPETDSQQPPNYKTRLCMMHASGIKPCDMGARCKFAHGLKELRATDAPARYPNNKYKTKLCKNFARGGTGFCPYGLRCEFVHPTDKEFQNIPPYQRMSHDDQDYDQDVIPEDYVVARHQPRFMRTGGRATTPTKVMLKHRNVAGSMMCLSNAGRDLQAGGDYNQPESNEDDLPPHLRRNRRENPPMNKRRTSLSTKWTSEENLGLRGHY

[4] = biological target: T4, RNA-binding protein pos-1 (Caenorhabditis elegans, UniProt G5EF15); test: disruptors of C. elegans POS-1 RNA interaction – biochemical, fluorescence polarization, dose response (AID 1964);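 also: purified POS-1 fused to maltose binding protein made in E. coli; potency of compounds blocking POS-1 binding to fluorescent RNA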
T4 sequence (G5EF15 whole entry): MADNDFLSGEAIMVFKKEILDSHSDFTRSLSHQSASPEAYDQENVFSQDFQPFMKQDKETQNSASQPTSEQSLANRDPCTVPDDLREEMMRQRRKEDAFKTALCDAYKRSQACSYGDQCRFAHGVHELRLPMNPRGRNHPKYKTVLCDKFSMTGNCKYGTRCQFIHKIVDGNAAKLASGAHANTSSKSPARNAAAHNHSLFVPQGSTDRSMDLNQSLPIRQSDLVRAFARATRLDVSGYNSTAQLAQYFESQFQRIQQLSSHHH

[5] = biological target: T5, Corticotropin-releasing factor receptor 2/Corticotropin-releasing factor-binding protein (Homo sapiens, UniProt P24387+Q13324); test: activators of CRF receptor 2 with binding protein – uHTS hits, confirmation (AID 602473); format: functional; conditions: read-out: EC50_Mean
T5 sequence (Q13324 whole entry): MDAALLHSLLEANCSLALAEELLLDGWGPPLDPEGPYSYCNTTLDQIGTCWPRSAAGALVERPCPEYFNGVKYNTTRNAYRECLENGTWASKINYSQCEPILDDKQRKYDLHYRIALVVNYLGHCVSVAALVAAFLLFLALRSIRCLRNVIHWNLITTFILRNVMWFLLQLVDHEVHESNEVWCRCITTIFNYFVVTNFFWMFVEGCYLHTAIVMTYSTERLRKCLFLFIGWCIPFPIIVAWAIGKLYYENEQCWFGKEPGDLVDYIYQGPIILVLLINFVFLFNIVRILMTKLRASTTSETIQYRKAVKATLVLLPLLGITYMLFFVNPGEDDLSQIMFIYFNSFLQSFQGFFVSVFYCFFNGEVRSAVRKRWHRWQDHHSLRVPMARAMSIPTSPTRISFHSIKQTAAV
T5 sequence (P24387 whole entry): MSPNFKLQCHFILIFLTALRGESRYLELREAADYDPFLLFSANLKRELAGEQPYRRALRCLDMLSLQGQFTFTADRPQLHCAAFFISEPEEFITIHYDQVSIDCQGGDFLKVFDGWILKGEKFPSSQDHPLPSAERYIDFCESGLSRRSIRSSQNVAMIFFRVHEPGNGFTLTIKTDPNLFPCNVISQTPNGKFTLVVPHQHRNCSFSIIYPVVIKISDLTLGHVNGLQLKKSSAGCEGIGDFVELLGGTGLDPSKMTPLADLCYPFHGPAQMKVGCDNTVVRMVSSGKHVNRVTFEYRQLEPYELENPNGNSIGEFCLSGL

[6] = biological target: T5, Corticotropin-releasing factor receptor 2/Corticotropin-releasing factor-binding protein; test: Dose Response confirmation of uHTS hits for small molecule antagonists of the CRF-binding protein and CRF-R2 receptor complex.; format: functional; conditions: read-out: IC50_Mean
[7] = biological target: T6, Heat shock factor protein 1 (Mus musculus, UniProt P38532); test: decrease of HSF1-responsive luciferase luminescence – cell-based, NIH3T3, dose retest, confirmation (AID 2382); format: functional;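 also: NIH3T3 fibroblasts with HSF1-driven luciferase reporter stressed by proteasome inhibitor MG132; luminescence from HSF1-driven luciferase expression after 8 hours of MG132 stress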
T6 sequence (P38532 whole entry): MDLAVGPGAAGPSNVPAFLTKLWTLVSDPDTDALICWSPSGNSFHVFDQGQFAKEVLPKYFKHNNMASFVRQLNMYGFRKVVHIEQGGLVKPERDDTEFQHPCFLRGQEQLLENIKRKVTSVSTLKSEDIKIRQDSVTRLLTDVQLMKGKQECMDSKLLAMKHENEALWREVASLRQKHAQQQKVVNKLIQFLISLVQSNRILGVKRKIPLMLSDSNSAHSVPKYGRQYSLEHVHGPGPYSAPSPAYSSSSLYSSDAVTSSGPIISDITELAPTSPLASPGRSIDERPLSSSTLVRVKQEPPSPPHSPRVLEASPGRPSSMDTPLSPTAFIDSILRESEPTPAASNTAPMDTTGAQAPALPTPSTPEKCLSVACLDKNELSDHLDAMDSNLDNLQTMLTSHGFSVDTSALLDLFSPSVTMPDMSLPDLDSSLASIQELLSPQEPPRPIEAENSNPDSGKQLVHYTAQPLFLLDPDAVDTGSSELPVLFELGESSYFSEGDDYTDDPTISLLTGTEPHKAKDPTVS

SMILES: Cc1nc2ccccc2c2c1C(=O)N(C(C)C)C2=O
- AC50 [1]: 192 µM (active)
- EC50 (Protein RecA): 0.851 µM (active)

SMILES: O=C1N=C(Nc2cccc(O)c2)S/C1=C\c1cccc([N+](=O)[O-])c1
- CC50 [2]: > 50 µM (active)

SMILES: O=C(c1ccccc1)c1c[nH]c(C(=O)C(Cl)(Cl)Cl)c1
- AC50 [1]: 21.7 µM (active)
- EC50 (Protein RecA): 8.23 µM (active)

SMILES: Cc1nn(Cc2ccccc2)c2c1C(c1ccco1)C(C#N)=C(N)O2 (centres undefined)
- AC50 [1]: > 380 µM (inactive)
- EC50 (Protein RecA): 3.15 µM (active)

SMILES: COC(=O)CCCC1=CC2=CC(=O)C(C)(OC(=O)C3CCCC3)C(=O)C2=CO1 (centres undefined)
- EC50 [3]: 57.7 µM (inconclusive)
- EC50 [4]: 23.3 µM (active)

SMILES: Cc1n[nH]c(-c2ccc(OCc3cnn(-c4ccccc4)c3)c(C)c2O)c1Oc1ccccc1
- CC50 [2]: 14.6 µM (active)

SMILES: O=C1NC2=C(CCc3ccccc32)C(c2ccccc2)N1 (centres undefined)
- AC50 [1]: 2.19 µM (active)
- EC50 (Protein RecA): 1.67 µM (active)

SMILES: CC1=C(C#N)C(=O)N(C)C(=O)/C1=C\NNc1ccc(F)cc1
- EC50 [3]: > 300 µM (not active)
- EC50 [4]: > 300 µM (not active)

SMILES: CCc1ccc(C2=NNC(=Nc3c(C)n(C)n(-c4ccccc4)c3=O)SC2)cc1
- CC50 [2]: 20.1 µM (active)

SMILES: CCOP(=O)(OCC)C(Nc1cccc([N+](=O)[O-])c1)c1ccccc1 (centres undefined)
- EC50 [5]: > 53 µM (inactive)
- EC50 [3]: > 300 µM (not active)
- EC50 [4]: > 300 µM (not active)
- IC50 [6]: > 47.1 µM (inactive)

SMILES: O=C(NC(NC(=S)Nc1ccc(Cl)cc1Cl)C(Cl)(Cl)Cl)c1cccc([N+](=O)[O-])c1 (centres undefined)
- AC50 [1]: 2.33 µM (active)
- EC50 (Protein RecA): 3.3 µM (active)

SMILES: CC1=Nc2ccc(C)c3nc(C)cc(c23)N1c1ccc(C)cc1
- CC50 [2]: > 50 µM (active)
- EC50 [7]: > 195 µM (not active)

SMILES: COC(=O)CNc1cccc(C(F)(F)F)c1
- EC50 [3]: > 300 µM (not active)
- EC50 [4]: > 300 µM (not active)

SMILES: N#Cc1ccc(CN2CCN(CC(=O)NCCc3ccc(Cl)cc3Cl)CC2)cc1
- CC50 [2]: 22.9 µM (active)

SMILES: CC(Oc1ccc(Cl)cc1Cl)C(=O)Nc1cccc(O)c1 (centres undefined)
- CC50 [2]: 27.2 µM (active)

SMILES: Cc1c(-c2nc[nH]n2)sc(C#N)c1-c1ccccc1
- CC50 [2]: 24.4 µM (active)
- EC50 [5]: > 53 µM (inactive)
- IC50 [6]: > 47.1 µM (inactive)

SMILES: Cc1nn(-c2ccccc2)c2c1C1(C(=O)N3c4c(cccc41)C(C)CC3(C)C)C(C#N)=C(N)O2 (centres undefined)
- AC50 [1]: 4.61 µM (active)
- EC50 (Protein RecA): 3.2 µM (active)

SMILES: O=C(CSc1nnc(-c2ccccc2Cl)o1)Oc1ccc(Br)cc1
- AC50 [1]: 1.42 µM (active)
- EC50 (Protein RecA): 3 µM (active)

SMILES: N#Cc1c(N)n(-c2cccc(C(=O)O)c2)c2nc3ccccc3nc12
- EC50 [5]: 13.7 µM (active)
- EC50 [3]: > 300 µM (not active)
- EC50 [4]: > 300 µM (not active)
- IC50 [6]: > 47.1 µM (inactive)

SMILES: CC(=O)c1c(O)cc(O)cc1CC(=O)O
- EC50 [3]: 190 µM (inconclusive)
- EC50 [4]: > 300 µM (inconclusive)

SMILES: CC1(C)C(=O)NCCN1C(=O)CSc1nccc(-c2ccc(Br)cc2)n1
- CC50 [2]: 34.1 µM (active)

SMILES: COc1ccc(/C(C)=N/Nc2nc3ccccc3nc2C)cc1OC
- EC50 [3]: 66.5 µM (inconclusive)
- EC50 [4]: 5.07 µM (inconclusive)

SMILES: CSc1ccc(/C=N/n2nnnc2N)cc1
- CC50 [2]: 48.5 µM (active)
